The source of these data is PMC10797628.

SMILES strings stand for the structures. Values joined by “and” are separate entries in the source; they are usually repeats but may differ in a detail not shown here. Equal values may be shown once. Read-outs that look alike come from different tables or passages of the source.

The target in one assay is T1, human 5-HT1B receptor (Homo sapiens, UniProt P28222).
T1 construct: host or cells: HEK293T
The assay is described as follows: Radioligand binding (saturation and competition), WT 5-HT1B. Particulars: for higher affinity at 5-HT1B over 5-HT1A receptors: affinity ratio.

The next assay addresses T2, human 5-HT1D receptor (Homo sapiens, UniProt P28221).
T2 construct: host or cells: HEK293T
Kind of assay: Radioligand binding (saturation and competition), WT 5-HT1D. The conditions noted are these: for higher affinity at 5-HT1D over 5-HT1A receptors: affinity ratio.

A further assay has as its target T3, human 5-HT1F receptor (Homo sapiens, UniProt P30939).
T3 construct: host or cells: HEK293T
T3 sequence (P30939 1-366): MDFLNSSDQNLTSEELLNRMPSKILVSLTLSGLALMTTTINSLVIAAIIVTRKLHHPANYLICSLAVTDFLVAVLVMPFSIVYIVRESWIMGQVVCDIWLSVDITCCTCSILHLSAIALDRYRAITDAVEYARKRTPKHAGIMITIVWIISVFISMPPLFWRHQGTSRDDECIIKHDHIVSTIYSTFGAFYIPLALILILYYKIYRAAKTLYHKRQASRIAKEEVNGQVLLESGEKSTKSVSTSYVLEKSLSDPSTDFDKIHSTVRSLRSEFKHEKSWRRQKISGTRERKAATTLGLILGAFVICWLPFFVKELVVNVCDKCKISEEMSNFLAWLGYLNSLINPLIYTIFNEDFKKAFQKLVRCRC
The assay is described as follows: Radioligand binding (saturation and competition), WT 5-HT1F.

For a further assay, the target named is T4, human 5-HT1A receptor (Homo sapiens, UniProt P08908).
T4 construct: host or cells: HEK293T
T4 sequence (P08908 1-422): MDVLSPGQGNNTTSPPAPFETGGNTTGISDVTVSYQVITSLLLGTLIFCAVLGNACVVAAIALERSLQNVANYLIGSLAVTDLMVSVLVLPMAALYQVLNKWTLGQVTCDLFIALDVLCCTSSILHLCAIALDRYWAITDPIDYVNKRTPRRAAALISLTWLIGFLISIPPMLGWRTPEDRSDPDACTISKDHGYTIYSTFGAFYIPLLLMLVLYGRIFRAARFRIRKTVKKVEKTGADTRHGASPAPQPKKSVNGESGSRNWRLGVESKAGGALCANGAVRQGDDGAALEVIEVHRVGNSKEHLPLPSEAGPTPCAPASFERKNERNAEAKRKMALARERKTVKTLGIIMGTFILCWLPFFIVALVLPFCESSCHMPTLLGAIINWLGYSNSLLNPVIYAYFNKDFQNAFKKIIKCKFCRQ
The assay is described as follows: cAMP accumulation (LANCE Ultra TR-FRET) in HEK293T cells, WT 5-HT1A. The assay is classed as cell-based. The conditions noted are these: for Emax: HEK-293T; for EC50: cAMP accumulation, HEKt cells, mean ± SD. As for the experimental part: (§1) Briefly, cells transfected with the desired receptor construct and compounds were incubated in the dark for 90 min at 37 °C. After incubation, cAMP detection reagents were added, and TR-FRET was used to quantify the cAMP produced.
(§2) The functional activity of compounds was determined by stimulating cells expressing the desired receptor with FSK and test compound in parallel with 12 known concentrations of cAMP. The known concentrations of cAMP were used to create a standard curve for each experiment that was used to interpolate the unknown values of cAMP in wells with test compounds. […] The EC50 and EMAX values were determined using the “dose response – log[agonist] vs response (three parameter)” nonlinear regression model in Prism and transformed to pEC50 values, reported as mean ± SD.
(§3) Summary of functional assay conditions at various 5-HT1 receptor point mutation constructs.

A further assay concerns the target T5, Y5.38F 5-HT1B receptor (Homo sapiens, UniProt P28222, Y208F).
T5 construct: host or cells: HEK293T
Kind of assay: cAMP accumulation in HEK293T cells, Y5.38F 5-HT1B. The assay is classed as cell-based. Particulars: point-mutated receptor, 3 independent experiments, read-out: pEC50 5-HT1B Receptor Y5.38F (converted). The protocol: as §1, §2
(§4) Cell Type Receptor Cell Density [Forskolin] Incubation time
as §3
On the technique in general: Changes in cAMP serve as a functional read-out for many G protein-coupled receptors.

The target in another assay is S5.42A 5-HT1B receptor (Homo sapiens, UniProt P28222, S212A). The assay is described as follows: cAMP accumulation in HEK293T cells, S5.42A 5-HT1B. The assay is classed as cell-based. Also on record: host or cells: HEK293T. Particulars: point-mutated receptor, 3 independent experiments, read-out: pEC50 5-HT1B Receptor S5.42A (converted). The protocol:
as §1, §2, §4, §3

The next assay concerns the target V45.52I 5-HT1D receptor (Homo sapiens, UniProt P28221, V190I). Kind of assay: cAMP accumulation in HEK293T cells, V45.52I 5-HT1D. The assay is classed as cell-based. Particulars: point-mutated receptor, 3 independent experiments, read-out: pEC50 5-HT1D Receptor V45.52I (converted). More on the design: host or cells: HEK293T. The protocol:
as §1, §2, §4, §3

The target in assay [1] is T6, Y5.38A 5-HT1D receptor (Homo sapiens, UniProt P28221, Y197A). Kind of assay: cAMP accumulation in HEK293T cells, Y5.38A 5-HT1D. Particulars: point-mutated receptor, 3 independent experiments, read-out: pEC50 5-HT1D Receptor Y5.38A (converted). Also on record: host or cells: HEK293T. The format is cell-based. The protocol: as §1, §2, §3
Assay [2] addresses T7, S5.42A 5-HT1D receptor (Homo sapiens, UniProt P28221, S201A). Kind of assay: cAMP accumulation in HEK293T cells, S5.42A 5-HT1D. Particulars: point-mutated receptor, 3 independent experiments, read-out: pEC50 5-HT1D Receptor S5.42A (converted). More on the design: host or cells: HEK293T. The format is cell-based. The protocol: as §1, §2, §3
The target of another assay is T7.39N 5-HT1D receptor (Homo sapiens, UniProt P28221, T342N). Kind of assay: Radioligand binding, T7.39N 5-HT1D.
Another assay deals with Y5.38F 5-HT1D receptor (Homo sapiens, UniProt P28221, Y197F). The assay is described as follows: Radioligand binding, Y5.38F 5-HT1D.
The target in assay [3] is T6, Y5.38A 5-HT1D receptor. Kind of assay: Radioligand binding, Y5.38A 5-HT1D.
Method: (§5) 48 hours after transfection with the desired receptor construct, cells were isolated for saturation and competition binding assays as previously described.[47],[48],[57] Saturation and competition radioligand binding assays were conducted in an assay buffer consisting of 50 mM Tris HCl, 10 mM MgCl2, and 0.1 mM EDTA in filtered deionized water. […] Briefly, 5–10 μg of the receptor protein, as determined by a Thermo Fisher Pierce BCA protein assay kit, was incubated with 8 concentrations of radioligand in triplicate to determine total binding. […] Nonspecific binding was determined as above for saturation assays.
(§6) For radioligand binding data, nonspecific binding was subtracted from the total binding to get specific binding. Saturation binding data was fit to the “binding saturation-specific binding with hill slope” model. Competition binding data were fit to the “binding competition-one-site fit Ki” non-linear regression model and transformed to pKi values, reported as mean ± SD.
(§7) is 50 mM Tris HCl, 10 mM MgCl2 and 0.1 mM EDTA in filtered deionized water.
For assay [4], the target named is T7, S5.42A 5-HT1D receptor. Kind of assay: Radioligand binding, S5.42A 5-HT1D.
Method: as §5, §6, §7
Assay [5] has as its target T8, V45.52I 5-HT1B receptor (Homo sapiens, UniProt P28222, V201I). The assay is described as follows: Radioligand binding, V45.52I 5-HT1B.
Method: as §5, §6, §7
Assay [6] concerns the target T8, V45.52I 5-HT1B receptor. Kind of assay: cAMP accumulation in HEK293T cells, V45.52I 5-HT1B. The format is cell-based. Also on record: mutated in house (Quikchange II) HTR01B0000; host or cells: HEK293T. The conditions noted are these: point-mutated receptor, 3 independent experiments, read-out: pEC50 5-HT1B Receptor V45.52I (converted). As for the experimental part:
as §1, §2, §4, §3

The mark [7] stands for this setting: Affinity (pKi ± SD) 5-HT1D, WT receptor, [^3H]5-CT competition, mean ± SD.
Where [8] appears, read: read-out: 5-HT1A EMAX (%), WT receptor, normalized to basal (0%) and 10 μM 5-CT (100%).

S5.42A 5-HT1B receptor, sequence (P28222 whole entry S212A): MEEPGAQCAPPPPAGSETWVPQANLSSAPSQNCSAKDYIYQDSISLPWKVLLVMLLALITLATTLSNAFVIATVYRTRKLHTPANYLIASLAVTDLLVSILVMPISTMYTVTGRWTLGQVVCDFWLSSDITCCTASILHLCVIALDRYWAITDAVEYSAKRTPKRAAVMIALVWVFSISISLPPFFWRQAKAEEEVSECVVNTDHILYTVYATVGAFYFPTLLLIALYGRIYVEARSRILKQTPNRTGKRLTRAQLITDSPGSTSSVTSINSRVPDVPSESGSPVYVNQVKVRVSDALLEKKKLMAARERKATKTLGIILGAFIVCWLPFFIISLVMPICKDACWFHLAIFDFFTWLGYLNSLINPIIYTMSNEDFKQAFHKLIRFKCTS
Y5.38F 5-HT1D receptor, sequence (P28221 whole entry Y197F): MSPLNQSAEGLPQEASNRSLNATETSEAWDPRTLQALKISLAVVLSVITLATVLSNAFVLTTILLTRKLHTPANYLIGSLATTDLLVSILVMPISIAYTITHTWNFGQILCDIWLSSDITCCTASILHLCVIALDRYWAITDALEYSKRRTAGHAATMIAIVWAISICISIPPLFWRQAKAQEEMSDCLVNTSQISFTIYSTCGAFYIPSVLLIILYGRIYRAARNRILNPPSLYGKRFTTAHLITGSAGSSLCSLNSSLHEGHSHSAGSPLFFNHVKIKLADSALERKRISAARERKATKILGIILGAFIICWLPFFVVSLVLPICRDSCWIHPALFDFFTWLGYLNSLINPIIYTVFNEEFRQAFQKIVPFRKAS
T7.39N 5-HT1D receptor, sequence (P28221 whole entry T342N): as the sequence (P28221 whole entry Y197F) above, with F197Y, T342N counted along it
T2 sequence (P28221 whole entry): as the sequence (P28221 whole entry Y197F) above, with F197Y counted along it
T7 sequence (P28221 whole entry S201A): as the sequence (P28221 whole entry Y197F) above, with F197Y, S201A counted along it
T8 sequence (P28222 whole entry V201I): as the sequence (P28222 whole entry S212A) above, with V201I, A212S counted along it
T1 sequence (P28222 whole entry): as the sequence (P28222 whole entry S212A) above, with A212S counted along it
V45.52I 5-HT1D receptor, sequence (P28221 whole entry V190I): as the sequence (P28221 whole entry Y197F) above, with V190I, F197Y counted along it
T6 sequence (P28221 whole entry Y197A): as the sequence (P28221 whole entry Y197F) above, with F197A counted along it
T5 sequence (P28222 whole entry Y208F): as the sequence (P28222 whole entry S212A) above, with Y208F, A212S counted along it
Method for T7.39N 5-HT1D receptor: as §5, §6, §7
Method for Y5.38F 5-HT1D receptor: as §5, §6, §7

One may read the Emax as the maximal effect, on the per cent scale that the assay sets. Regarding `CN(C)[C@H]1CCc2c(cccc2-c2ccccc2F)C1` [(S)-FPT], the “higher affinity at 5-HT1B over 5-HT1A receptors” value at human 5-HT1B receptor is reported as 2 fold. Moreover, the Ki is 1.07 nM on human 5-HT1D receptor (setting [7]); more than 10000 nM on human 5-HT1F receptor; 10.7 nM on T7.39N 5-HT1D receptor; 1.29 nM at Y5.38F 5-HT1D receptor; 1.07 nM at Y5.38A 5-HT1D receptor [3]; 1.29 nM at S5.42A 5-HT1D receptor [4]. Moreover, the Ki at V45.52I 5-HT1B receptor [5] is 1.91 nM. Besides, on human 5-HT1D receptor, the “higher affinity at 5-HT1D over 5-HT1A receptors” value amounted to 4 fold. In addition, at human 5-HT1A receptor (setting [8]), the Emax was 90 ± 2%. Moreover, the EC50 is 0.813 nM at Y5.38F 5-HT1B receptor; 1.02 nM on S5.42A 5-HT1B receptor; 1.48 nM at V45.52I 5-HT1D receptor; 1.45 nM on Y5.38A 5-HT1D receptor [1]; 1.35 nM at S5.42A 5-HT1D receptor [2]; 0.776 nM on V45.52I 5-HT1B receptor [6].

For the molecule `CN(C)[C@H]1CCc2c(cccc2-c2cccc3ccccc23)C1` [(S)-NAP], the Ki on human 5-HT1B receptor (Affinity (pKi ± SD) 5-HT1B, WT receptor, [^3H]5-CT competition, mean ± SD) is 4.57 nM; on human 5-HT1D receptor (setting [7]) it was 0.832 nM; at human 5-HT1F receptor, 5370 nM; on T7.39N 5-HT1D receptor it was 1.07 nM; at Y5.38F 5-HT1D receptor, 0.661 nM; at Y5.38A 5-HT1D receptor [3], 70.8 nM. The Ki at S5.42A 5-HT1D receptor [4] was 1.17 nM; on V45.52I 5-HT1B receptor [5], 41.7 nM. Besides, the “higher affinity at 5-HT1B over 5-HT1A receptors” value at human 5-HT1B receptor was determined as 10 fold. For the same molecule, on human 5-HT1D receptor, the “higher affinity at 5-HT1D over 5-HT1A receptors” value was 70 fold. Also, the EC50 was 389 nM at human 5-HT1A receptor (5-HT1A pEC50, WT receptor); 35.5 nM at Y5.38F 5-HT1B receptor; 35.5 nM at S5.42A 5-HT1B receptor; 257 nM at V45.52I 5-HT1D receptor; 288 nM at Y5.38A 5-HT1D receptor [1]; 10 nM at S5.42A 5-HT1D receptor [2]. The EC50 at V45.52I 5-HT1B receptor [6] was 224 nM. The Emax at human 5-HT1A receptor (setting [8]) was 72 ± 4%.

With `Fc1ccccc1-c1cccc2c1CC[C@H](N1CCCC1)C2` [(S)-PFPT], the Ki was 12 nM at human 5-HT1B receptor (read-out: Affinity (pKi ± SD) 5-HT1B (converted)); 13.5 nM on human 5-HT1D receptor (read-out: Affinity (pKi ± SD) 5-HT1D (converted)); more than 10000 nM on human 5-HT1F receptor (WT receptor, [^3H]5-HT competition, mean ± SD, read-out: Affinity (pKi ± SD) 5-HT1F (converted)); 4.17 nM at T7.39N 5-HT1D receptor; 41.7 nM on Y5.38F 5-HT1D receptor; 42.7 nM on Y5.38A 5-HT1D receptor [3]. The Ki at S5.42A 5-HT1D receptor [4] was 41.7 nM; at V45.52I 5-HT1B receptor [5], 14.5 nM. Further, at human 5-HT1A receptor (read-out: 5-HT1A EMAX (%)), the Emax turned out to be 100 ± 2%. Also, the EC50 is 1.66 nM at human 5-HT1A receptor (WT receptor, read-out: 5-HT1A pEC50 (converted)); 55 nM on Y5.38F 5-HT1B receptor; 316 nM on S5.42A 5-HT1B receptor; 58.9 nM on V45.52I 5-HT1D receptor; 191 nM on Y5.38A 5-HT1D receptor [1]; 309 nM on S5.42A 5-HT1D receptor [2]. Further, on V45.52I 5-HT1B receptor [6], the EC50 was 51.3 nM. For the same molecule, the “higher functional potency at 5-HT1A over 5-HT1B and 5-HT1D receptors” value on human 5-HT1A receptor (cAMP potency ratio) is ~40 fold and 35 fold.
